Patent US10472341B2, “Bicyclic tetrahydrothiazepine derivatives useful for the treatment of neoplastic and/or infectious diseases” (APEIRON BIOLOGICS AG, priority 2015, dated 2019)
Like-named read-outs stand apart in the source and are kept apart here.

Legend:
[1] = system: aCD3/aCD28-stimulated human CD4+-T-cells; assay: IL-2 production and activation markers in aCD3/aCD28 stimulated isolated human CD4+-T-cells; format: cell-based; conditions: IL-2 production at 3 μM compound
In short: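 CD4+ T cells isolated from buffy-coat PBMCs by microbeads were plated in Xvivo medium (1.5*10^5 cells/well) and stimulated with anti-CD3/28 mAbs plus compound. IL-2 measured by ELISA in supernatants at 24 h or 48 h; CD25 and proliferation by flow cytometry, CD69 at 24 h. Activity classes based on IL-2 at 3 μM compound.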

[2] = system: aCD3/aCD28-stimulated human PBMCs; assay: Cytokine production in aCD3/aCD28 stimulated human PBMCs; format: cell-based; conditions: PBMC, 18 h
In short: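 Compound effects measured in buffy-coat PBMCs activated 18 h at 37° C by 1 μg/mL each of soluble anti-CD3 (OKT3) and anti-CD28 (28.2), 1e6 cells/mL. Cytokines in harvested supernatants read by MSD or HTRF.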

[3] = enhancement of IFN-γ production, read-out: Activity Class IFN-γ
[4] = enhancement of IL-2 production, read-out: Activity Class IL-2

| SMILES | Activity Class CD4+ [1] | EC50 [2, 3] | EC50 [2, 4] |
| --- | --- | --- | --- |
| Cl.N[C@H]1CSc2ccc(C(=O)NC3CCC(F)(F)CC3)cc2N(Cc2ccc(Cl)cc2)C1=O [Example 33, (3R)-3-amino-5-[(4-chlorophenyl)methyl]-N-(4,4-difluorocyclohexyl)-4-oxo-2,3,4,5-tetrahydro-1,5-benzothiazepine-7-carboxamide hydrochloride] | B (IL-2 production at 3 μM compound concentration between 2-10 ng/mL) | < 1.58 µM | 1.58 to 5.01 µM |
| CC(NC(=O)c1ccc2c(c1)N(Cc1ccc(Cl)cc1)C(=O)[C@@H](N)CS2)c1ccc(F)cc1.Cl (stereo partly drawn) [Example 34, (3R)-3-amino-5-[(4-chlorophenyl)methyl]-N-[1-(4-fluorophenyl)ethyl]-4-oxo-2,3,4,5-tetrahydro-1,5-benzothiazepine-7-carboxamide hydrochloride] | C (IL-2 production at 3 μM compound concentration between 2-fold increase as compared to mean IL-2 production of stimulated cells in the absence of compounds and <2 ng/mL) | 1.58 to 5.01 µM | 1.58 to 5.01 µM |
| COc1ccc([C@H](C)NC(=O)c2ccc3c(c2)N(Cc2ccc(Cl)cc2)C(=O)[C@@H](N)CS3)cc1 [Example 35, (3R)-3-amino-5-[(4-chlorophenyl)methyl]-N-[(1S)-1-(4-methoxyphenyl)ethyl]-4-oxo-2,3,4,5-tetrahydro-1,5-benzothiazepine-7-carboxamide] | C (IL-2 production at 3 μM compound concentration between 2-fold increase as compared to mean IL-2 production of stimulated cells in the absence of compounds and <2 ng/mL) | > 5.01 µM | > 5.01 µM |
| Cl.N[C@H]1CSc2ccc(C(=O)NCCCC(F)(F)F)cc2N(Cc2ccc(C(F)(F)F)nc2)C1=O [Example 36, (3R)-3-amino-4-oxo-N-(4,4,4-trifluorobutyl)-5-{[6-(trifluoromethyl)pyridin-3-yl]methyl}-2,3,4,5-tetrahydro-1,5-benzothiazepine-7-carboxamide hydrochloride] | C (IL-2 production at 3 μM compound concentration between 2-fold increase as compared to mean IL-2 production of stimulated cells in the absence of compounds and <2 ng/mL) | < 1.58 µM | > 5.01 µM |
| Cl.N[C@H]1CSc2ccc(C(=O)NCc3ccc(F)cc3)cc2N(Cc2ccc(C(F)(F)F)nc2)C1=O [Example 37, (3R)-3-amino-N-[(4-fluorophenyl)methyl]-4-oxo-5-{[6-(trifluoromethyl)pyridin-3-yl]methyl}-2,3,4,5-tetrahydro-1,5-benzothiazepine-7-carboxamide hydrochloride] | C (IL-2 production at 3 μM compound concentration between 2-fold increase as compared to mean IL-2 production of stimulated cells in the absence of compounds and <2 ng/mL) | > 5.01 µM | 1.58 to 5.01 µM |
| C[C@@H](NC(=O)c1ccc2c(c1)N(Cc1ccc(Cl)cc1)C(=O)[C@@H](N)CS2)c1ccc(F)cc1.Cl [Example 38, (3R)-3-amino-5-[(4-chlorophenyl)methyl]-N-[(1R)-1-(4-fluorophenyl)ethyl]-4-oxo-2,3,4,5-tetrahydro-1,5-benzothiazepine-7-carboxamide hydrochloride] | C (IL-2 production at 3 μM compound concentration between 2-fold increase as compared to mean IL-2 production of stimulated cells in the absence of compounds and <2 ng/mL) | 1.58 to 5.01 µM | 1.58 to 5.01 µM |
| Cl.N[C@H]1CSc2cc(F)c(C(=O)NCc3ccc(F)cc3)cc2N(Cc2ccc(Cl)cc2)C1=O [Example 39, (3R)-3-amino-5-[(4-chlorophenyl)methyl]-8-fluoro-N-[(4-fluorophenyl)methyl]-4-oxo-2,3,4,5-tetrahydro-1,5-benzothiazepine-7-carboxamide hydrochloride] | B (IL-2 production at 3 μM compound concentration between 2-10 ng/mL) | < 1.58 µM | 1.58 to 5.01 µM |
| CCCCNC(=O)c1cc2c(cc1F)SC[C@H](N)C(=O)N2Cc1ccc(Cl)cc1.Cl [Example 41, (3R)-3-amino-N-butyl-5-[(4-chlorophenyl)methyl]-8-fluoro-4-oxo-2,3,4,5-tetrahydro-1,5-benzothiazepine-7-carboxamide hydrochloride] | C (IL-2 production at 3 μM compound concentration between 2-fold increase as compared to mean IL-2 production of stimulated cells in the absence of compounds and <2 ng/mL) | < 1.58 µM | 1.58 to 5.01 µM |
| Cl.N[C@H]1CSc2cc(F)c(C(=O)NCC3CCOCC3)cc2N(Cc2ccc(Cl)cc2)C1=O [Example 42, (3R)-3-amino-5-[(4-chlorophenyl)methyl]-8-fluoro-N-(oxan-4-ylmethyl)-4-oxo-2,3,4,5-tetrahydro-1,5-benzothiazepine-7-carboxamide hydrochloride] | C (IL-2 production at 3 μM compound concentration between 2-fold increase as compared to mean IL-2 production of stimulated cells in the absence of compounds and <2 ng/mL) | 1.58 to 5.01 µM | > 5.01 µM |
| COc1ccc(CNC(=O)c2cc3c(cc2F)SC[C@H](N)C(=O)N3Cc2ccc(Cl)cc2)cc1.Cl [Example 43, (3R)-3-amino-5-[(4-chlorophenyl)methyl]-8-fluoro-N-[(4-methoxyphenyl)methyl]-4-oxo-2,3,4,5-tetrahydro-1,5-benzothiazepine-7-carboxamide hydrochloride] | C (IL-2 production at 3 μM compound concentration between 2-fold increase as compared to mean IL-2 production of stimulated cells in the absence of compounds and <2 ng/mL) | < 1.58 µM | 1.58 to 5.01 µM |
| Cc1nc(-c2ccc(CN3C(=O)[C@@H](N)CSc4ccc(C(=O)NCC5CCOCC5)cc43)cc2)no1.Cl [Example 44, (3R)-3-amino-5-{[4-(5-methyl-1,2,4-oxadiazol-3-yl)phenyl]methyl}-N-(oxan-4-ylmethyl)-4-oxo-2,3,4,5-tetrahydro-1,5-benzothiazepine-7-carboxamide hydrochloride] | C (IL-2 production at 3 μM compound concentration between 2-fold increase as compared to mean IL-2 production of stimulated cells in the absence of compounds and <2 ng/mL) | 1.58 to 5.01 µM | > 5.01 µM |
| CCCCNC(=O)c1ccc2c(c1)N(Cc1ccc(-n3cncn3)cc1)C(=O)[C@@H](N)CS2.Cl [Example 46, (3R)-3-amino-N-butyl-4-oxo-5-{[4-(1H-1,2,4-triazol-1-yl)phenyl]methyl}-2,3,4,5-tetrahydro-1,5-benzothiazepine-7-carboxamide hydrochloride] | C (IL-2 production at 3 μM compound concentration between 2-fold increase as compared to mean IL-2 production of stimulated cells in the absence of compounds and <2 ng/mL) | 1.58 to 5.01 µM | > 5.01 µM |
| CC(C)(O)CNC(=O)c1ccc2c(c1)N(Cc1ccc(Cl)cc1)C(=O)[C@@H](N)CS2 [Example 48, (3R)-3-amino-5-[(4-chlorophenyl)methyl]-N-(2-hydroxy-2-methylpropyl)-4-oxo-2,3,4,5-tetrahydro-1,5-benzothiazepine-7-carboxamide] | C (IL-2 production at 3 μM compound concentration between 2-fold increase as compared to mean IL-2 production of stimulated cells in the absence of compounds and <2 ng/mL) | 1.58 to 5.01 µM | > 5.01 µM |
| CC(C)(O)CNC(=O)c1cc2c(cc1F)SC[C@H](N)C(=O)N2Cc1ccc(Cl)cc1 [Example 50, (3R)-3-amino-5-[(4-chlorophenyl)methyl]-8-fluoro-N-(2-hydroxy-2-methylpropyl)-4-oxo-2,3,4,5-tetrahydro-1,5-benzothiazepine-7-carboxamide] | C (IL-2 production at 3 μM compound concentration between 2-fold increase as compared to mean IL-2 production of stimulated cells in the absence of compounds and <2 ng/mL) | 1.58 to 5.01 µM | > 5.01 µM |
| C[C@H]1Sc2ccc(C(=O)NCCCC(F)(F)F)cc2N(Cc2ccc(Cl)cc2)C(=O)[C@H]1N.Cl [Example 51, (2R,3R)-3-amino-5-[(4-chlorophenyl)methyl]-2-methyl-4-oxo-N-(4,4,4-trifluorobutyl)-2,3,4,5-tetrahydro-1,5-benzothiazepine-7-carboxamide hydrochloride] | C (IL-2 production at 3 μM compound concentration between 2-fold increase as compared to mean IL-2 production of stimulated cells in the absence of compounds and <2 ng/mL) | < 1.58 µM | 1.58 to 5.01 µM |
| CCCC(=O)NNC(=O)c1ccc2c(c1)N(Cc1ccc(Cl)cc1)C(=O)[C@@H](N)CS2.Cl [Example 53, (3R)-3-amino-N′-butanoyl-5-[(4-chlorophenyl)methyl]-4-oxo-2,3,4,5-tetrahydro-1,5-benzothiazepine-7-carbohydrazide hydrochloride] | C (IL-2 production at 3 μM compound concentration between 2-fold increase as compared to mean IL-2 production of stimulated cells in the absence of compounds and <2 ng/mL) | > 5.01 µM | > 5.01 µM |
| CCCCNC(=O)c1cc2c(cc1F)SC[C@H](N)C(=O)N2Cc1ccc(Cl)cc1F.Cl [Example 54, (3R)-3-amino-N-butyl-5-[(4-chloro-2-fluorophenyl)methyl]-8-fluoro-4-oxo-2,3,4,5-tetrahydro-1,5-benzothiazepine-7-carboxamide hydrochloride] | B (IL-2 production at 3 μM compound concentration between 2-10 ng/mL) | 1.58 to 5.01 µM | 1.58 to 5.01 µM |
| Cl.N[C@H]1CSc2cc(F)c(C(=O)NCC3CCOCC3)cc2N(Cc2ccc(Cl)cc2F)C1=O [Example 55, (3R)-3-amino-5-[(4-chloro-2-fluorophenyl)methyl]-8-fluoro-N-(oxan-4-ylmethyl)-4-oxo-2,3,4,5-tetrahydro-1,5-benzothiazepine-7-carboxamide hydrochloride] | B (IL-2 production at 3 μM compound concentration between 2-10 ng/mL) | 1.58 to 5.01 µM | 1.58 to 5.01 µM |
